From patent US20200069685A1, “Dosing schedule for a combination of Ceritinib and an anti-PD-1 antibody molecule” (NOVARTIS AG, priority 2017, published 2020)

How the values were obtained:
Type in all cases: in vivo, human
[1] = Food effect study of ceritinib in healthy subjects; settings: single oral dose 500 mg
[2] = Ceritinib alone: side effects and dose adjustments in patients
Protocol: The doses were reduced from 750 mg in the steps of 150 mg down to the lowest 300 mg. If the patient required doses lower than 300 mg, ceritinib was discontinued. Approximately 54% of patients initiating treatment at the recommended dose of 750 mg fasted required at least one dose adjustment due to adverse reaction, with a median time to first dose reduction of approximately 7 weeks. However, based on the preliminary data from 36 patients, who were enrolled to 4 cohorts to the concomitant combination therapy of ceritinib and nivolumab, the rates of severe rash (even grade 3) were unexpectedly higher. The cohorts were as follows: cohort 1 (n=8), ceritinib 450 mg daily with a low fat meal in combination with nivolumab 3 mg/kg Q2W; cohort 2 (n=6), ceritinib 450 mg daily with a low fat meal in combination with nivolumab 3 mg/kg Q2W; cohort 3 (n=11), ceritinib 300 mg daily with a low fat meal in combination with nivolumab 3 mg/kg Q2W; cohort 4 (n=11), ceritinib 300 mg daily with a low fat meal in combination with nivolumab 3 mg/kg Q2W. Both dose levels, i.e. 450 mg and 300 mg of ceritinib, administered with the low fat meal led to severe rash. The 450 mg dose level had higher rates of some adverse events, especially grade-3 rash, than expected based on data from either single agent. The proportion of patients with grade-3 rash was higher at the 450 mg dose level, 4/14 patients (29%), than at the 300 mg dose level, 3/22 patients (14%). With regard to the efficacy of the combination therapy, of the 14 patients treated at the 450 mg dose level, 9 (64%) achieved a confirmed partial response. Of the 22 patients treated at the 300 mg dose level, 4 (18%) achieved a confirmed complete (1 patient) or partial (3 patients) response; however, limited follow up, especially for cohort 4, confounded the assessment of confirmed response. The disease control rate (DCR) was similar for the 450 mg and 300 mg dose levels, 79% and 82% respectively. […] However, the 300 mg dose level appeared to have a lower number of objective responses, although this observation was based on a small number of patients with limited follow-up. […] Therefore, based on the safety, efficacy, and PK data a new beneficial dosing regimen is provided that is expected to improve tolerability while maintaining exposure similar to that observed at the 450 mg dose level. We provide herein a dosing regimen for the combination therapy of ceritinib and an anti-PD-1 antibody molecule, where ceritinib is administered for 2 cycles before initiation of combination therapy with nivolumab. […]

[3] = Ceritinib steady state PK (AUC0-24 and Cmax) in the ceritinib and nivolumab combination cohorts; settings: preliminary; ceritinib in combination with nivolumab
Protocol: The doses were reduced from 750 mg in the steps of 150 mg down to the lowest 300 mg. If the patient required doses lower than 300 mg, ceritinib was discontinued. Approximately 54% of patients initiating treatment at the recommended dose of 750 mg fasted required at least one dose adjustment due to adverse reaction, with a median time to first dose reduction of approximately 7 weeks. However, based on the preliminary data from 36 patients, who were enrolled to 4 cohorts to the concomitant combination therapy of ceritinib and nivolumab, the rates of severe rash (even grade 3) were unexpectedly higher. The cohorts were as follows: cohort 1 (n=8), ceritinib 450 mg daily with a low fat meal in combination with nivolumab 3 mg/kg Q2W; cohort 2 (n=6), ceritinib 450 mg daily with a low fat meal in combination with nivolumab 3 mg/kg Q2W; cohort 3 (n=11), ceritinib 300 mg daily with a low fat meal in combination with nivolumab 3 mg/kg Q2W; cohort 4 (n=11), ceritinib 300 mg daily with a low fat meal in combination with nivolumab 3 mg/kg Q2W. Both dose levels, i.e. 450 mg and 300 mg of ceritinib, administered with the low fat meal led to severe rash. The 450 mg dose level had higher rates of some adverse events, especially grade-3 rash, than expected based on data from either single agent. […]

[4] = Relative bioavailability study in healthy subjects, light snack cohort; settings: light snack (approximately 100-300 calories and 1.5 grams of fat), single 750 mg oral dose
[5] = high-fat meal (approximately 1000 calories and 58 grams of fat)
[6] = low-fat meal (approximately 330 calories and 9 grams of fat)

increase of AUCinf compared to the fasted state [1, 5]: 73%
increase of Cmax compared to the fasted state [1, 5]: 41%
increase of AUCinf compared to the fasted state [1, 6]: 58%
increase of Cmax compared to the fasted state [1, 6]: 43%
steady state exposure (AUC0-24 and Cmax) at 300 mg with food relative to 450 mg with food [3]: 60-65%
increase of AUCinf compared to the fasted condition [4]: 54%
increase of Cmax compared to the fasted condition [4]: 45%
SMILES: Cc1cc(Nc2ncc(Cl)c(Nc3ccccc3S(=O)(=O)C(C)C)n2)c(OC(C)C)cc1C1CCNCC1 [ceritinib, 5-chloro-N2-(2-isopropoxy-5-methyl-4-(piperidin-4-yl)phenyl)-N4-[2-(propane-2-sulfonyl)-phenyl]-pyrimidine-2,4-diamine]
rash [2]: observed rarely
side effects observed [2]: nausea, diarrhea, vomiting, fatigue, ALT/AST elevation, constipation, abdominal pain
median time to first dose reduction ([2]; 750 mg fasted): approximately 7 weeks
patients who required at least one dose adjustment due to adverse reaction ([2]; recommended dose of 750 mg fasted): Approximately 54%
